Measurements: PMC12508063, “Chloroindazole based estrogen receptor β ligands with favorable pharmacokinetics promote functional remyelination and visual recovery” (Scientific Reports, 2025)
Several values for one entry are separate records, joined by “and”; a condition that tells them apart may be missing. Identical values can stand only once. Values belong to the molecule of their own block, whether it stands above or below them.

Experiments:
ERβ = molecular target: T1, ERβ (Homo sapiens, UniProt Q92731); assay: ER reporter gene assay in HEK 293 T cells (ER-luciferase reporter); format: cell-based; conditions: for Reporter gene assay raw data, ERb: ERb data block (head r19), 4 replicate columns; for ERb reporter gene assay raw data (response): four replicate columns per compound
T1 construct: expressed in transfected cells; host or cells: HEK 293 T cells
T1 sequence (Q92731 whole entry, species assumed): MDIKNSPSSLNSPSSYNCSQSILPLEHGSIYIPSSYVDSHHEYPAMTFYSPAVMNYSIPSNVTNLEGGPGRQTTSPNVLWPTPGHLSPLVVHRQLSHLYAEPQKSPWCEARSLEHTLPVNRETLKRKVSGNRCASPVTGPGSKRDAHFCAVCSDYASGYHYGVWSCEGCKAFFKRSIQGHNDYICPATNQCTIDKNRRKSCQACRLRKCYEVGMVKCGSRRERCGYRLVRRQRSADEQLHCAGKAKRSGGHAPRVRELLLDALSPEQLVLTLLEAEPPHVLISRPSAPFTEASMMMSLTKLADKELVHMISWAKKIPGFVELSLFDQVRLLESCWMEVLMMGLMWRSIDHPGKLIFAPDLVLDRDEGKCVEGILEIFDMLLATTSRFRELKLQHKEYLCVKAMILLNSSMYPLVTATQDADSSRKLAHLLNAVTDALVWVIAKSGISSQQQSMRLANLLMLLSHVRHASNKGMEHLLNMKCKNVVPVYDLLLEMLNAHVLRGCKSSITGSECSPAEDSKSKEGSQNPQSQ

ERα = molecular target: T2, ERα (Homo sapiens, UniProt P03372); assay: as above; format: cell-based; conditions: for Reporter gene assay raw data, ERa: 4 replicate columns
T2 construct: expressed in transfected cells; host or cells: HEK 293 T cells
T2 sequence (P03372 1-595): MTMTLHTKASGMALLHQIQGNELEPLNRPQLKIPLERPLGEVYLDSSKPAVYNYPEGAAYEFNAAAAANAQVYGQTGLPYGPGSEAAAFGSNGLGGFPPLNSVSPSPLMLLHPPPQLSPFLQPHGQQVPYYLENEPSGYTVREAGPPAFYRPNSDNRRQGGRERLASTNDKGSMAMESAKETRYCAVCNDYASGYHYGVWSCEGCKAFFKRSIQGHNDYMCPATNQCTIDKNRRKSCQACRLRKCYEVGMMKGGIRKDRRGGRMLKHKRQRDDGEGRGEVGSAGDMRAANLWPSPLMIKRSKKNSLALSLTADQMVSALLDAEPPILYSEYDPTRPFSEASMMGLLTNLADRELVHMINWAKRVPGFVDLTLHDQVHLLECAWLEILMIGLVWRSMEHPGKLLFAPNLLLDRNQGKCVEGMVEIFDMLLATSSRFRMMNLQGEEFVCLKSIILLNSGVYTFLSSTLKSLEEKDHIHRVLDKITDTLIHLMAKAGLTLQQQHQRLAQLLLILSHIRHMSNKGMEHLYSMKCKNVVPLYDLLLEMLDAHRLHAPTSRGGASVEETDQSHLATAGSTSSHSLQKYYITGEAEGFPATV

Reporter gene assay raw data, ERb (ERβ; Log M -7.4318): 88.9611 and 107.81 and 89.4793
ERb reporter gene assay raw data (response) (ERβ; Log M -9.34008): 83.69 and 95.3591 and 88.894 and 92.378
ERb reporter gene assay raw data (response) (ERβ; Log M -10.7721): 27.7709 and 32.5606 and 30.8658
Reporter gene assay raw data, ERb (ERβ; Log M -11.248): 7.1742 and 11.1236 and 8.004 and 9.347
ERb reporter gene assay raw data (response) (ERβ; Log M -11.248): 5.759 and 5.232 and 4.796 and 6.634
Compound: C[C@]12CC[C@@H]3c4ccc(O)cc4CC[C@H]3[C@@H]1CC[C@@H]2O [Compound E2, estradiol]
Reporter gene assay raw data, ERb (ERβ; Log M -6): 88.8232 and 101.64 and 110.514 and 90.7218
ERb reporter gene assay raw data (response) (ERβ; Log M -6): 84.0609 and 88.7479 and 111.697 and 94.4619
Reporter gene assay raw data, ERb (ERβ; Log M -6.47756): 97.0869 and 99.8524 and 105.457 and 96.3817
ERb reporter gene assay raw data (response) (ERβ; Log M -6.47756): 91.3063 and 103.043 and 96.9565 and 108.694
Reporter gene assay raw data, ERb (ERβ; Log M -6.95468): 101.657 and 108.929 and 91.071 and 98.3432
ERb reporter gene assay raw data (response) (ERβ; Log M -6.95468): 85.5094 and 93.8773 and 82.9145 and 86.4119
ERb reporter gene assay raw data (response) (ERβ; Log M -7.4318): 92.1619 and 99.8727 and 93.6976 and 98.6683
Reporter gene assay raw data, ERb (ERβ; Log M -7.91009): 87.7241 and 103.45 and 96.1824 and 92.6694
ERb reporter gene assay raw data (response) (ERβ; Log M -7.91009): 89.9017 and 89.3359 and 90.9076 and 106.617
Reporter gene assay raw data, ERb (ERβ; Log M -8.3851): 90.4631 and 100.397 and 90.4263 and 91.0339
ERb reporter gene assay raw data (response) (ERβ; Log M -8.3851): 91.9536 and 86.2134 and 78.7089 and 97.5579
Reporter gene assay raw data, ERb (ERβ; Log M -8.86328): 79.9036 and 104.483 and 99.1546 and 93.2724
ERb reporter gene assay raw data (response) (ERβ; Log M -8.86328): 95.1963 and 89.1365 and 87.1229 and 89.1607
Reporter gene assay raw data, ERb (ERβ; Log M -9.34008): 95.3149 and 101.905 and 91.5426 and 83.1517
Reporter gene assay raw data, ERb (ERβ; Log M -9.81816): 104.147 and 95.8332 and 93.5201 and 92.5995
ERb reporter gene assay raw data (response) (ERβ; Log M -9.81816): 83.8842 and 77.8861 and 83.3564 and 89.1956
Reporter gene assay raw data, ERb (ERβ; Log M -10.2941): 77.6845 and 76.952 and 81.0679 and 77.2912
ERb reporter gene assay raw data (response) (ERβ; Log M -10.2941): 80.3017 and 74.375 and 74.4575 and 76.8278
Reporter gene assay raw data, ERb (ERβ; Log M -10.7721): 31.1486 and 35.6178 and 35.7979 and 36.2215
ERb reporter gene assay raw data (response) (ERβ; Log M -13): -0.5566 and 0.8119 and -0.8119 and 0.5566

Reporter gene assay raw data, ERa (ERα; Log M -9.81816, first ERa data block (head r2)): 8.154 and 4.486 and 4.8306 and 4.983
Reporter gene assay raw data, ERa (ERα; Log M -9.81816, second ERa data block (head r34)): 6.6406 and 6.967 and 4.962 and 7.591
Reporter gene assay raw data, ERa (ERα; Log M -10.2941, first ERa data block (head r2)): 3.132 and 9.724 and 4.561 and 11.8118
Reporter gene assay raw data, ERa (ERα; Log M -10.2941, second ERa data block (head r34)): 3.775 and 13.8366 and 4.292 and 12.8533
Reporter gene assay raw data, ERa (ERα; Log M -10.7721, first ERa data block (head r2)): 1.451 and 1.5656 and -0.4526 and 1.85
Reporter gene assay raw data, ERa (ERα; Log M -10.7721, second ERa data block (head r34)): -0.2019 and 1.235 and 0.142 and 1.333
Reporter gene assay raw data, ERa (ERα; Log M -11.248, second ERa data block (head r34)): -0.9111 and -0.3248 and 1.487 and 1.068
ERa reporter gene assay raw data (response) (ERα; Log M -13, four replicate columns per compound): 0.8253 and -0.8253 and 1.478 and -1.478
Compound: Oc1ccc([C@@H]2Oc3ccc(O)cc3[C@@H]3CCC[C@@H]32)cc1 [LY500307]
Reporter gene assay raw data, ERa (ERα; Log M -6, first ERa data block (head r2)): 95.3498 and 76.8258 and 78.8468 and 79.4968
Reporter gene assay raw data, ERa (ERα; Log M -6, second ERa data block (head r34)): 84.2897 and 88.4184 and 89.8518 and 82.7548
Reporter gene assay raw data, ERa (ERα; Log M -6.47756, first ERa data block (head r2)): 81.0788 and 76.9627 and 81.3158 and 77.2241
Reporter gene assay raw data, ERa (ERα; Log M -6.47756, second ERa data block (head r34)): 83.7373 and 79.8906 and 79.6354 and 82.4556
Reporter gene assay raw data, ERa (ERα; Log M -6.95468, first ERa data block (head r2)): 64.5612 and 69.8569 and 66.3267 and 71.602
Reporter gene assay raw data, ERa (ERα; Log M -6.95468, second ERa data block (head r34)): 71.7534 and 71.241 and 72.7885 and 70.2307
Reporter gene assay raw data, ERa (ERα; Log M -7.4318, first ERa data block (head r2)): 51.8548 and 63.5801 and 59.7283 and 55.8203
Reporter gene assay raw data, ERa (ERα; Log M -7.4318, second ERa data block (head r34)): 63.921 and 68.3671 and 59.0742 and 56.656
Reporter gene assay raw data, ERa (ERα; Log M -7.91009, first ERa data block (head r2)): 45.1889 and 57.478 and 50.9227 and 51.1094
Reporter gene assay raw data, ERa (ERα; Log M -7.91009, second ERa data block (head r34)): 50.9317 and 49.5895 and 46.336 and 52.0394
Reporter gene assay raw data, ERa (ERα; Log M -8.3851, first ERa data block (head r2)): 49.7552 and 47.0158 and 40.3598 and 42.6852
Reporter gene assay raw data, ERa (ERα; Log M -8.3851, second ERa data block (head r34)): 51.0127 and 45.6306 and 44.3415 and 46.4772
Reporter gene assay raw data, ERa (ERα; Log M -8.86328, first ERa data block (head r2)): 31.993 and 35.5083 and 37.6374 and 35.7027
Reporter gene assay raw data, ERa (ERα; Log M -8.86328, second ERa data block (head r34)): 42.4323 and 38.564 and 35.9099 and 35.545
Reporter gene assay raw data, ERa (ERα; Log M -9.34008, first ERa data block (head r2)): 17.3101 and 15.2621 and 18.8474 and 18.6811
Reporter gene assay raw data, ERa (ERα; Log M -9.34008, second ERa data block (head r34)): 21.5928 and 20.6886 and 16.8312 and 20.0407
Reporter gene assay raw data, ERa (ERα; Log M -11.248, first ERa data block (head r2)): -0.6879 and -0.2253 and -0.584 and 0.4876
